The record followed here is ChEMBL document CHEMBL1131701, “Synthesis and evaluation of potent and selective c-GMP phosphodiesterase inhibitors” (Bioorg Med Chem Lett, 1999).

Each structure is given as a SMILES string.

The target in assay [1] is T1, Phosphodiesterase 3 (Homo sapiens, UniProt Q14432+Q13370). Description: Optimum inhibitory concentration required to inhibit […] (PDE3). The format is protein assay.
Assay [2] deals with T2, cGMP-specific 3',5'-cyclic phosphodiesterase (Bos taurus, UniProt Q28156). Description: Optimum inhibitory concentration required to inhibit c-GMP specific Phosphodiesterase 5 (PDE5) of bovine lung.
The target in assay [3] is Dual specificity calcium/calmodulin-dependent 3',5'-cyclic nucleotide phosphodiesterase 1A (Bos taurus, UniProt P14100). Description: Optimum inhibitory concentration required to inhibit c-GMP specific phosphodiesterase 1 (PDE1) of bovine aorta.
The target in assay [4] is T1, Phosphodiesterase 3. Description: Inhibition of cGMP-inhibited phosphodiesterase 3 (PDE3). The format is protein assay.
For assay [5], the target named is T2, cGMP-specific 3',5'-cyclic phosphodiesterase. Description: Inhibition of c-GMP specific phosphodiesterase PDE5 of bovine lung.

The term IC50 denotes the midpoint of a concentration-inhibition curve.

Dual specificity calcium/calmodulin-dependent 3',5'-cyclic nucleotide phosphodiesterase 1A, sequence (P14100 whole entry): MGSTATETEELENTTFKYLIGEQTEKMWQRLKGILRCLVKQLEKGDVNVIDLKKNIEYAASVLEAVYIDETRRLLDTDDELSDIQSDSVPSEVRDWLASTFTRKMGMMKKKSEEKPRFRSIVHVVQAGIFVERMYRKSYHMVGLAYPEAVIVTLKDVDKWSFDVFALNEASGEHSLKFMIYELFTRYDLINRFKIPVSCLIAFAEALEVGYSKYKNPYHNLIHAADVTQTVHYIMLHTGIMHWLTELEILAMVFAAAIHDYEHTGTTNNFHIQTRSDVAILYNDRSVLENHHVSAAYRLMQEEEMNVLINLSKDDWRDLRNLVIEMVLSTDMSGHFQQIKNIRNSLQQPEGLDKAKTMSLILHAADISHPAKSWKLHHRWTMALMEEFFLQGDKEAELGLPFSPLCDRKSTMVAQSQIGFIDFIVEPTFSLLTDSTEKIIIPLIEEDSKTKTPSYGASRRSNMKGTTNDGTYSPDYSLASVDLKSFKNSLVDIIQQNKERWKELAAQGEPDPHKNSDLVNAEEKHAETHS

Take `CCCCc1nc2c([nH]1)N1C(=N[C@@H]3CCC[C@@H]31)N(C)C2=O`: the concentration for half-maximal inhibition (IC50) in assay [1] was 38000 nM; in assay [2] it was 140 nM; in assay [3], 110 nM.

On to `CC(C)CCCc1nc2c([nH]1)N1C[C@@H](C(C)C)N=C1N(C)C2=O`, for which the half-inhibitory concentration (IC50) in assay [1] was 65000 nM; in assay [2], 6 nM; in assay [3] it was 12 nM.

Turning to `CC(C)CCc1nc2c([nH]1)N1C(=N[C@@H]3CCC[C@@H]31)N(C)C2=O`, the half-inhibitory concentration (IC50) in assay [1] came to 15000 nM; in assay [3] it was 14 nM.

On to `CCCCCCc1nc2c([nH]1)N1C(=N[C@@H]3CCC[C@@H]31)N(C)C2=O`, for which the figures for the IC50 in assay [1] and in assay [3] were 12000 nM and 36 nM, respectively.

Turning to `CCCCCCCCc1nc2c([nH]1)N1C(=N[C@@H]3CCC[C@@H]31)N(C)C2=O`, the values for the IC50 in assay [4], in assay [5] and in assay [3] were 10000 nM, 14 nM and 33 nM, respectively.

In the case of `CCC(CC)c1nc2c([nH]1)N1C(=N[C@@H]3CCC[C@@H]31)N(C)C2=O`, the results for the IC50 in assay [1], in assay [2] and in assay [3] were 150000 nM, 1400 nM and 150 nM, respectively.

As to `CCCCCCc1nc2c([nH]1)N1CC3(CCCC3)N=C1N(C)C2=O`, the 50% inhibitory concentration (IC50) in assay [1] came to 15000 nM; in assay [2], 11 nM; in assay [3] it was 14 nM.

Take `CCCCCc1nc2c([nH]1)N1C(=N[C@@H]3CCC[C@@H]31)N(C)C2=O`: the IC50 is 20000 nM in assay [1], 40 nM in assay [2] and 31 nM in assay [3].

Consider `CC(C)CCc1nc2c([nH]1)N1C[C@@H](C(C)C)N=C1N(C)C2=O`, for which the IC50 in assay [1] stood at 40000 nM; in assay [2], 22 nM; in assay [3], 15 nM.

Regarding `CCCCCCc1nc2c([nH]1)N1C[C@@H](C(C)C)N=C1N(C)C2=O`, the IC50 was 18000 nM in assay [1], 5 nM in assay [2] and 25 nM in assay [3].

With `CCCc1nc2c([nH]1)N1C(=N[C@@H]3CCC[C@@H]31)N(C)C2=O`, the IC50 in assay [1] turned out to be 80000 nM; in assay [3], 350 nM.

As for `CCCCCCCc1nc2c([nH]1)N1C(=N[C@@H]3CCC[C@@H]31)N(C)C2=O`, the values for the IC50 in assay [1], in assay [2] and in assay [3] were 7000 nM, 30 nM and 160 nM, respectively.

As to `CC(C)CCCc1nc2c([nH]1)N1C(=N[C@@H]3CCC[C@@H]31)N(C)C2=O`, the IC50 in assay [1] is 35000 nM; in assay [2], 10 nM; in assay [3], 6 nM.

Consider `Cc1nc2c([nH]1)C(=O)N(C)C1=N[C@@H]3CCC[C@@H]3N12`, for which the concentration for half-maximal inhibition (IC50) in assay [1] is greater than 300000 nM; in assay [3], 1250 nM.

Consider `CCCC(CCC)c1nc2c([nH]1)N1C(=N[C@@H]3CCC[C@@H]31)N(C)C2=O`, for which the results for the IC50 in assay [1], in assay [2] and in assay [3] were 80000 nM, 150 nM and 60 nM, respectively.

Regarding `CCCCCCc1nc2c([nH]1)N1CC(C)(C)N=C1N(C)C2=O`, the IC50 in assay [1] turned out to be 28000 nM; in assay [2] it was 8 nM; in assay [3] it was 25 nM.

For the compound `CCc1nc2c([nH]1)N1C(=N[C@@H]3CCC[C@@H]31)N(C)C2=O`, the half-maximal inhibitory concentration (IC50) in assay [1] came to 150000 nM; in assay [2], 1200 nM; in assay [3], 295 nM.
